Test: xn = mol fraction of the nth substance listed
Conditions: 101 kPa, Liquid, Vibrating tube method

CC1COC(=O)O1 (configuration not stated) [4-methyl-1,3-dioxolan-2-one] + c1ccccc1
Conditions | mass density [kg/m3]
293.15 K, x2 = 0 | 1200.3
293.15 K, x2 = 0.049 | 1184.5
293.15 K, x2 = 0.1189 | 1162
293.15 K, x2 = 0.1749 | 1144.1
293.15 K, x2 = 0.2349 | 1125
293.15 K, x2 = 0.2949 | 1105.9
293.15 K, x2 = 0.3649 | 1083.6
293.15 K, x2 = 0.4248 | 1064.6
293.15 K, x2 = 0.4959 | 1041.9
293.15 K, x2 = 0.5529 | 1023.8
293.15 K, x2 = 0.6249 | 1000.7
293.15 K, x2 = 0.6934 | 978.6
293.15 K, x2 = 0.7539 | 959
293.15 K, x2 = 0.8135 | 939.6
293.15 K, x2 = 0.8622 | 923.6
293.15 K, x2 = 0.9248 | 902.9
303.15 K, x2 = 0 | 1180.6
303.15 K, x2 = 0.0487 | 1165.3
303.15 K, x2 = 0.1273 | 1140.9
303.15 K, x2 = 0.1841 | 1123.3
303.15 K, x2 = 0.2487 | 1103.3
303.15 K, x2 = 0.3127 | 1083.6
303.15 K, x2 = 0.3749 | 1064.4
303.15 K, x2 = 0.4364 | 1045.4
303.15 K, x2 = 0.4821 | 1031.4
303.15 K, x2 = 0.5428 | 1012.6
303.15 K, x2 = 0.6038 | 993.7
303.15 K, x2 = 0.6782 | 970.5
303.15 K, x2 = 0.7465 | 949.1
303.15 K, x2 = 0.8246 | 924.4
303.15 K, x2 = 0.8846 | 905.3
303.15 K, x2 = 0.9381 | 888.1
313.15 K, x2 = 0 | 1161.3
313.15 K, x2 = 0.0537 | 1145
313.15 K, x2 = 0.1295 | 1122
313.15 K, x2 = 0.1649 | 1111.4
313.15 K, x2 = 0.2359 | 1090
313.15 K, x2 = 0.3139 | 1066.7
313.15 K, x2 = 0.3619 | 1052.3
313.15 K, x2 = 0.4143 | 1036.6
313.15 K, x2 = 0.4829 | 1016.1
313.15 K, x2 = 0.5498 | 996.1
313.15 K, x2 = 0.625 | 973.4
313.15 K, x2 = 0.6821 | 956.2
313.15 K, x2 = 0.7492 | 935.8
313.15 K, x2 = 0.8247 | 912.6
313.15 K, x2 = 0.8732 | 897.6
313.15 K, x2 = 0.9348 | 878.4
323.15 K, x2 = 0 | 1142.4
323.15 K, x2 = 0.0598 | 1124.7
323.15 K, x2 = 0.131 | 1103.7
323.15 K, x2 = 0.1856 | 1087.7
323.15 K, x2 = 0.2438 | 1070.7
323.15 K, x2 = 0.3257 | 1046.8
323.15 K, x2 = 0.3987 | 1025.6
323.15 K, x2 = 0.4589 | 1008.1
323.15 K, x2 = 0.5156 | 991.6
323.15 K, x2 = 0.5687 | 976.1
323.15 K, x2 = 0.6145 | 962.7
323.15 K, x2 = 0.6647 | 948
323.15 K, x2 = 0.7365 | 926.8
323.15 K, x2 = 0.7965 | 909
323.15 K, x2 = 0.8567 | 891
323.15 K, x2 = 0.9267 | 869.8
333.15 K, x2 = 0 | 1124
333.15 K, x2 = 0.0592 | 1106.9
333.15 K, x2 = 0.1281 | 1087
333.15 K, x2 = 0.1834 | 1071.2
333.15 K, x2 = 0.2487 | 1052.6
333.15 K, x2 = 0.3279 | 1030.1
333.15 K, x2 = 0.3987 | 1010
333.15 K, x2 = 0.4598 | 992.7
333.15 K, x2 = 0.5139 | 977.4
333.15 K, x2 = 0.5533 | 966.2
333.15 K, x2 = 0.6138 | 949
333.15 K, x2 = 0.6623 | 935.1
333.15 K, x2 = 0.7246 | 917.3
333.15 K, x2 = 0.7749 | 902.7
333.15 K, x2 = 0.8568 | 878.9
333.15 K, x2 = 0.9248 | 858.9
343.15 K, x2 = 0 | 1106
343.15 K, x2 = 0.0638 | 1087.9
343.15 K, x2 = 0.1139 | 1073.8
343.15 K, x2 = 0.1756 | 1056.4
343.15 K, x2 = 0.2439 | 1037.4
343.15 K, x2 = 0.3178 | 1016.9
343.15 K, x2 = 0.3875 | 997.6
343.15 K, x2 = 0.4583 | 978
343.15 K, x2 = 0.5076 | 964.3
343.15 K, x2 = 0.5586 | 950.2
343.15 K, x2 = 0.6246 | 931.9
343.15 K, x2 = 0.6981 | 911.4
343.15 K, x2 = 0.7528 | 896.1
343.15 K, x2 = 0.8137 | 878.9
343.15 K, x2 = 0.8748 | 861.5
343.15 K, x2 = 0.9361 | 843.9
353.15 K, x2 = 0 | 1088.4
353.15 K, x2 = 0.053 | 1073.6
353.15 K, x2 = 0.1329 | 1051.5
353.15 K, x2 = 0.1822 | 1037.9
353.15 K, x2 = 0.2378 | 1022.7
353.15 K, x2 = 0.3327 | 996.9
353.15 K, x2 = 0.381 | 983.8
353.15 K, x2 = 0.4485 | 965.5
353.15 K, x2 = 0.5236 | 945.2
353.15 K, x2 = 0.5728 | 931.9
353.15 K, x2 = 0.6387 | 914
353.15 K, x2 = 0.6831 | 901.9
353.15 K, x2 = 0.7428 | 885.6
353.15 K, x2 = 0.7933 | 871.7
353.15 K, x2 = 0.8642 | 852.1
353.15 K, x2 = 0.9461 | 829.2
